Results as given in patent publication US20090239841A1, “Diaryl Ureas as CB1 Antagonists” (priority 2004, published 2009).

These compounds were tested against T1, hCB1 (Homo sapiens, UniProt P21554) (assay: Agonist-induced GTP binding (GTPγ35S) assay at CB1, Example 8). Settings: IC50 at CB1, determined as described in Example 8; read-out: IC50.
T1 construct: made in house; host or cells: Sf9 insect cells (baculovirus), P2 membranes
Format: biochemical
Summary of the method: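 Antagonism read as inhibition of 1 nM CP55,940-stimulated GTPγ35S ([…]) binding, compounds at 10^−10 to 10^−5 M. Baculovirus-infected Sf9 membranes bearing hCB1 plus G-protein subunits, 60 min room-temperature incubation with 5 μM GDP. Filtration and scintillation counting; data as percent over basal.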

T1 sequence (P21554 whole entry): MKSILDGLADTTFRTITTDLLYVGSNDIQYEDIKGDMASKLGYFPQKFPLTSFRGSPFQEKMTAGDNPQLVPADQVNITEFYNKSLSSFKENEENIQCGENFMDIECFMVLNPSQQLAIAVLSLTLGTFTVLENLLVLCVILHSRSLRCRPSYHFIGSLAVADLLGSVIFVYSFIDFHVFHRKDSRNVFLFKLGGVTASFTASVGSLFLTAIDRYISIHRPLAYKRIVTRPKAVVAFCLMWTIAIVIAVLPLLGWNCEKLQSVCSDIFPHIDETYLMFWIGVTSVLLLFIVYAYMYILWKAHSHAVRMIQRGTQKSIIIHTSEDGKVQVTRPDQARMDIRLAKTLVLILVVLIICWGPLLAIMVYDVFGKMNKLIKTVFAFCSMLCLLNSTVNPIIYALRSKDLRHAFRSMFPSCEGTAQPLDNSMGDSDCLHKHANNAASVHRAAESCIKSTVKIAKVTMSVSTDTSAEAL

IC50 [µM]	Compound
< 2	CN1CCN(S(=O)(=O)c2cccc(NC(=O)Nc3cccc(OC(F)F)c3)c2)CC1 [Compound 788, N-[3-(difluoromethoxy)phenyl]-N′-{3-[(4-methyl-1-piperazinyl)sulfonyl]phenyl}urea]
< 2	O=C(Nc1ccc(S(=O)(=O)N2CCNCC2)cc1)Nc1cccc(OC(F)F)c1 [Compound 789, N-[3-(difluoromethoxy)phenyl]-N′-[4-(1-piperazinylsulfonyl)phenyl]urea]
< 2	CN1CCN(S(=O)(=O)c2ccc(NC(=O)Nc3cccc(OC(F)F)c3)cc2)CC1 [Compound 790, N-[3-(difluoromethoxy)phenyl]-N′-{4-[(4-methyl-1-piperazinyl)sulfonyl]phenyl}urea]
< 2	CCn1nnnc1-c1ccc(NC(=O)Nc2cccc(OC(F)F)c2)cc1 [Compound 791, N-[3-(difluoromethoxy)phenyl]-N′-[4-(1-ethyl-1H-tetrazol-5-yl)phenyl]urea]
< 2	CCn1nnc(-c2ccc(NC(=O)Nc3cccc(OC(F)F)c3)cc2)n1 [Compound 792, N-[3-(difluoromethoxy)phenyl]-N′-[4-(2-ethyl-2H-tetrazol-5-yl)phenyl]urea]
< 2	NC(=O)CN1CCN(S(=O)(=O)c2ccc(NC(=O)Nc3cccc(OC(F)F)c3)cc2)CC1 [Compound 793, 2-[4-({4-[({[3-(difluoromethoxy)phenyl]amino}carbonyl)amino]phenyl}sulfonyl)-1-piperazinyl] acetamide]
< 2	Cn1nnnc1-c1cccc(NC(=O)Nc2ccc(Cn3ccnn3)cc2)c1 [Compound 794, N-[3-(1-methyl-1H-tetrazol-5-yl)phenyl]-N′-[4-(1H-1,2,3-triazol-1-ylmethyl)phenyl]urea]
